The results in this text go back to ChEMBL document CHEMBL1149679 (Bioorg Med Chem Lett, 2007).

Structures are written as SMILES.

Data set [1] addresses T1, Polyunsaturated fatty acid lipoxygenase ALOX12 (Homo sapiens) (UniProt P18054).
T1 sequence (whole entry): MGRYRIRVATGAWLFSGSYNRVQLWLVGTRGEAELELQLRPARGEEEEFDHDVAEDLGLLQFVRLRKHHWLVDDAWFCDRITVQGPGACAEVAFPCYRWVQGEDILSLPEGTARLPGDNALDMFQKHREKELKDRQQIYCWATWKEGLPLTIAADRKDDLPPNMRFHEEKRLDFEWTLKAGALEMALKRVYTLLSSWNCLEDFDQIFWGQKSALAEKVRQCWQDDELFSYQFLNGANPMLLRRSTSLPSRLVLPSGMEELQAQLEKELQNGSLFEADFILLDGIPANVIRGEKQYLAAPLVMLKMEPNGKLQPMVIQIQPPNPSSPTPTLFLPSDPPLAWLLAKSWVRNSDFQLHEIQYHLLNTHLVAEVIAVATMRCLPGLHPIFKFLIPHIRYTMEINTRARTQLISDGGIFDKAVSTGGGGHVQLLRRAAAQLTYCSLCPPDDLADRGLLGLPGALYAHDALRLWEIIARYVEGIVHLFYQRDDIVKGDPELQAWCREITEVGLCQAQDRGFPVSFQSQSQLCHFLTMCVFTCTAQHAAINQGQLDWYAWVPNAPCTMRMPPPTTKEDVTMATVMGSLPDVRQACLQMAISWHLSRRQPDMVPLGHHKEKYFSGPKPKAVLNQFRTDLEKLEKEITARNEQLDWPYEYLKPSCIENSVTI
Nature of the data set: Inhibition of platelet 12-lipoxygenase at 10 uM.

For data set [2], the target named is T2, Polyunsaturated fatty acid 5-lipoxygenase (Homo sapiens) (UniProt P09917).
T2 sequence (whole entry): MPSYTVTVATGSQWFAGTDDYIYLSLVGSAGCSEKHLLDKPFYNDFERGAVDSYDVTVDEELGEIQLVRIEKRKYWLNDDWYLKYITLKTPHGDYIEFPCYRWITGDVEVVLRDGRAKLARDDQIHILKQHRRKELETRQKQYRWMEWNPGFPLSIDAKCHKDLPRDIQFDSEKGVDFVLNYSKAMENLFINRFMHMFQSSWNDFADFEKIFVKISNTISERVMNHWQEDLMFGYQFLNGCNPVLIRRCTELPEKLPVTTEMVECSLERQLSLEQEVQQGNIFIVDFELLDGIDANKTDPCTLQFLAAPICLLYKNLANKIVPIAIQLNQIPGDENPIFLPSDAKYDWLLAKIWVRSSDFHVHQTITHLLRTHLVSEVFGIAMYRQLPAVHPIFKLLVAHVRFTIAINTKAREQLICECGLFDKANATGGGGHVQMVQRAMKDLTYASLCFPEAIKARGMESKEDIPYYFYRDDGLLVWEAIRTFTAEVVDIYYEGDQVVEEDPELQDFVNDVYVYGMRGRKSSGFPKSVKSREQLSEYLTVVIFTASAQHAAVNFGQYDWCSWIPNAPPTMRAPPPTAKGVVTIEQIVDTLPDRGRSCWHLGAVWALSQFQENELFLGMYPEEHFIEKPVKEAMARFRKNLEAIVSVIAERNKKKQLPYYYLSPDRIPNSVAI
Briefly: Inhibition of human 5-lipoxygenase at 10 uM.

Data set [3] can be described thus: Hydrophilicity, log D at pH 6.5. It is filed as physicochemical. The conditions noted are these: buffer.
A short description of data set [4]: Aqueous solubility at pH6.5. It is filed as physicochemical. The conditions noted are these: buffer, pH 6.5.
Data set [5] addresses T3, Polyunsaturated fatty acid 5-lipoxygenase (Homo sapiens, UniProt P09917).
T3 sequence (P09917 whole entry): T2 sequence (whole entry)
Briefly: Inhibition of 5-lipoxygenase.

The target in data set [6] is T4, Polyunsaturated fatty acid lipoxygenase ALOX15 (Oryctolagus cuniculus, UniProt P12530).
T4 sequence (P12530 whole entry): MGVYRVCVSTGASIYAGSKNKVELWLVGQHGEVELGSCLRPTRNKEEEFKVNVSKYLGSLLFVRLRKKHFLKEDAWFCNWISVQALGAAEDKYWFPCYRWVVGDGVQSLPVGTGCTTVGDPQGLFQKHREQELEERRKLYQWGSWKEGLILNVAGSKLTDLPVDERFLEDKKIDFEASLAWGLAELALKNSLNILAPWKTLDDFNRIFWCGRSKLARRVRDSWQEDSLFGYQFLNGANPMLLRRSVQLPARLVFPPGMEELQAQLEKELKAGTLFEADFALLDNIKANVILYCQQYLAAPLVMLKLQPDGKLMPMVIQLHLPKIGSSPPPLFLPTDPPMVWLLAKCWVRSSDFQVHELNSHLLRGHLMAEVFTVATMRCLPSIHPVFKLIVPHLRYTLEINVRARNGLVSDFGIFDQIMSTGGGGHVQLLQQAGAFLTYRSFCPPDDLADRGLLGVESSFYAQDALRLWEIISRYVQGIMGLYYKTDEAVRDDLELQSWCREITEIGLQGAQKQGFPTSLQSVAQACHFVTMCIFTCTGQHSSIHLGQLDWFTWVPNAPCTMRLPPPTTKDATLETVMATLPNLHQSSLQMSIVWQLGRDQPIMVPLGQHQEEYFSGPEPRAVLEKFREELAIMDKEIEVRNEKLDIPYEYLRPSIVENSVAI
Nature of the data set: Inhibition of rabbit 15-lipoxygenase in presence of arachidonic acid.

Data set [7] has as its target T5, Polyunsaturated fatty acid lipoxygenase ALOX12 (Homo sapiens, UniProt P18054).
T5 sequence (P18054 whole entry): T1 sequence (whole entry)
Nature of the data set: Inhibition of platelet 12-lipoxygenase.

The target in data set [8] is T4, Polyunsaturated fatty acid lipoxygenase ALOX15. Nature of the data set: Inhibition of rabbit 15-lipoxygenase in presence of linoleic acid.
Data set [9] addresses T6, Polyunsaturated fatty acid lipoxygenase ALOX15B (Homo sapiens) (UniProt O15296).
T6 sequence (whole entry): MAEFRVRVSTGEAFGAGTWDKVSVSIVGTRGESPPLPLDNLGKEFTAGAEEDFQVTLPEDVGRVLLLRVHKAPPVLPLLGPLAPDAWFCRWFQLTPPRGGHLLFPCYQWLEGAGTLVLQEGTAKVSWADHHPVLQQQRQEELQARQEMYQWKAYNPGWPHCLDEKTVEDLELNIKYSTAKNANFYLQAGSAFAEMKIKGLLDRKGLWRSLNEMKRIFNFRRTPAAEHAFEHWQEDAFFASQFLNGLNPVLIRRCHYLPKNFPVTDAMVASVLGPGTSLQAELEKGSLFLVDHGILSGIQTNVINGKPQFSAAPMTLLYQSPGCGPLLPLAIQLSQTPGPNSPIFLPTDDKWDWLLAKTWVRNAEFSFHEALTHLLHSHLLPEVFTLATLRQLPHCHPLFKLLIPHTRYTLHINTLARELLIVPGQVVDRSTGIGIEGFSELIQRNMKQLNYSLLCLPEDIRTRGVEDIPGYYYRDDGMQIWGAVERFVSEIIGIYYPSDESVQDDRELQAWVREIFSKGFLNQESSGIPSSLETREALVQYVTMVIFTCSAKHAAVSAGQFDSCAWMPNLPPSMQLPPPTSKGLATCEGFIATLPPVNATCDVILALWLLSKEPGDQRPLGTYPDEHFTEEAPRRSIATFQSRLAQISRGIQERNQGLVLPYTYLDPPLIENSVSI
Nature of the data set: Inhibition of human recombinant 15-lipoxygenase over-expressed in CHO cells at 10 uM. In kind it is cell-based.

A short description of data set [10]: Cmax in Sprague-Dawley rat at 7 mg/kg, po. In kind it is ADME, organism-based. The conditions noted are these: in vivo. The arrangement: dose 7 mg/kg, route oral.
Data set [11] has as its target T2, Polyunsaturated fatty acid 5-lipoxygenase (Homo sapiens). Nature of the data set: Inhibition of human 5-lipoxygenase at 3 uM.
Data set [12] deals with T1, Polyunsaturated fatty acid lipoxygenase ALOX12 (Homo sapiens). Nature of the data set: Inhibition of platelet 12-lipoxygenase at 3 uM.
Data set [13] can be described thus: AUC in Sprague-Dawley rat at 7 mg/kg, po. In kind it is ADME, organism-based. The arrangement: dose 7 mg/kg, route oral. The settings on record: plasma.

As to `CCCCCc1ccc(S(=O)(=O)NCCc2nc(-c3cccs3)[nH]c2-c2ccc(OC)cc2)cc1`, the inhibition in [1] turned out to be 50%; in [2], 41%; in data set [9], 98%. Moreover, the logD in data set [3] is more than 6. For the same compound, in data set [4], the solubility is less than 1 µg/mL. For the same compound, the IC50 was more than 10000 nM in [5], 13 nM in data set [6], 9700 nM in data set [7] and 6 nM in data set [8]. In addition, the Cmax in data set [10] worked out at 600 nM.

Turning to `CCCCCc1ccc(S(=O)(=O)NCCc2nc(-c3ccccc3)[nH]c2-c2ccc(OC)cc2)cc1`, the results for the inhibition in [11], in data set [12] and in [9] were 15%, 45% and 83%, respectively. Also, the figures for the IC50 in data set [6] and in data set [8] were 50 nM and 14 nM, respectively.

The compound `CCCCN1CCN(S(=O)(=O)NCCc2nc(-c3cccs3)[nH]c2-c2ccc(OC)cc2)CC1` gave an AUC in data set [13] of 4.4 µM·h. For the same compound, the IC50 in data set [6] was determined as 50 nM; in data set [8] it was 14 nM. This compound yielded a Cmax in data set [10] of 1700 nM.
